Measurements reported in US5512305A, “Invitroinhibition of the HIV virus with ionic tungstoniobate compounds” (priority 1990, dated 1996).

Experiments:
cells = settings: background statement; cited from earlier work
[1] = Storage stability / shelf-life; format: physicochemical
Vero cells = assay: Cytotoxicity assay in Vero cells; format: cell-based
HIV-1 (strain LAV-1) = assay: Inhibition of virus replication in human PBMC (supernatant reverse transcriptase activity); format: cell-based; settings: 50% inhibition of RT activity vs untreated controls, six days after infection
Method: (§1) Cells. Human peripheral blood mononuclear cells (PBMC) from healthy HIV-1 seronegative and hepatitis B virus seronegative donors were isolated by Ficoll-Hypaque discontinuous gradient centrifugation at 1,000×g for 30 minutes, washed twice in phosphate-buffered saline (pH 7.2; PBS), and pelleted at 300×g for 10 minutes. Before infection, the cells were stimulated by phytohemagglutinin […] at a concentration of 6 μg/ml for three days in RPMI 1640 medium supplemented with 15% heat-inactivated fetal calf serum, 1.5 mM L-glutamine, penicillin (100 U/ml), streptomycin (100 μg/ml), and 4 mM sodium bicarbonate buffer.
Viruses. HIV-1 (strain LAV-1) was obtained from Dr. P. Feorino (Centers for Disease Control, Atlanta, Ga.). […]
PBMC. […] The mean reverse transcriptase (RT) activity of the inocula was 50,000 decompositions per min/ml corresponding to about 100 TCID50, as determined by Groopman et al. (Groopman et al, AIDS Res. Human Retro. 3, 71-85, 1987. The drugs at twice their final concentration in 5 ml of RPMI 1640 medium, supplemented as described above, were added to the cultures. Uninfected and untreated PBMC at equivalent cell densities were grown in parallel as controls. The cultures were maintained in a humidified 5% CO2 -95% air incubator at 37° C. for six days after infection, at which point all cultures were sampled for supernatant reverse transcriptase (RT) activity. […]
The RT assay was performed in 96-well microtiter plates, as described by Spira et al. (Spira et al, J. Clin. Microbiol. 22, 97-99, 1987). […] Four ml of scintillation fluid (Econofluor, NEN Research Products, Boston, Mass.) were added and the amount of radioactivity in each sample was determined using a Packard Tri-Carb liquid scintillation analyzer (model 2,000CA). […]

HSV-1 = assay: Plaque reduction assay for herpes simplex in Vero cells; format: cell-based
Excerpt: Cell culture assays for herpes simplex.
Viruses. (HSV-1) Mycoplasma-free Vero cells, obtained from Flow Laboratory (McLean, Va.), were used for plaque assays.

human PBMC = assay: Cytotoxicity assay in uninfected PHA stimulated human PBMC (trypan blue dye-exclusion); format: cell-based; settings: 6 days, cell viability
Method: as §1
Cytotoxicity assay. The drugs were evaluated for their potential toxic affects on uninfected PHA stimulated human PBMC. Flasks were seeded so that the final cell concentration was 2×10^5 cells/mi. The cells were cultured with and without drug for 6 days, at which time aliquots were counted for cell viability, as assessed by the trypan blue dye-exclusion method using a hemacytometer. The median inhibitory concentration (IC50) was calculated using the median effect method (Chou et al, Elsevier-Biosoft, Elsevier Science Publishers, Cambridge, U.K., 1985; Chou et al, Adv. Enz. Regul. 22, 27-55, 1984). The results are reported as IC50 PBMC below.

herpes virus = settings: JP 64-38,022; cited from earlier work
HIV = settings: Chemical and Engineering News, December 1986; cited from earlier work
[2] = compound abandoned; cited from earlier work

Row | Compound | IC50 (Vero cells) [µM] | EC50 (HIV-1 (strain LAV-1)) [µM] | EC50 (HSV-1) [µM] | IC50 (human PBMC) [µM] | also measured
1 | Cc1cn([C@H]2C[C@H](N=[N+]=[N-])[C@@H](CO)O2)c(=O)[nH]c1=O [AZT] |  |  |  |  | toxicity to cells (cells): high toxicity to cells
2 | (Me4 N)9 P2 Nb3 W15 O62 !.15H2 O.CH3 CN |  |  |  |  | stability on storage [1]: stable on storage
3 | (Me4 N/Na/K)5 Nb3 W3 O19 !.nH2 O [Me4 N/Na/K!5 Nb3 W3 O19 !] | > 100 | 8.56 | 5.66 | > 100 | 
4 | (Na/K)6 Nb4 W2 O19 !.nH2 O [Na/K!6 Nb4 W2 O19 !] | > 100 | 0.073 | > 100 | > 100 | 
5 | K5 BW12 O40 |  |  |  |  | activity against herpes virus (herpes virus): activity against herpes virus
6 | K7 PW10 Ti2 O40 |  |  |  |  | activity against herpes virus (herpes virus): activity against herpes virus
7 | Me3 NH!8 Si2 W18 Nb6 O77 ! | > 100 | 0.081 | > 1 | > 100 | 
8 | silicotungstate acid [H4 SiW12 O40] |  |  |  |  | activity against HIV (HIV): has activity against HIV; toxicity in higher animals [2]: toxicity in higher animals
